According to patent US7915292B2, “Antibacterial quinoline derivatives” (Janssen Pharmaceutica NV, priority 2005, dated 2011):
Converted amounts (≈) assume the structure as drawn. Counter-ions that a name gives are not always drawn.

What was measured:
[1] = system: Mycobacterium tuberculosis (strain H37RV); experiment: In-vitro method for testing compounds against M. tuberculosis (resazurin growth inhibition); format: cell-based; details: 7 days incubation; for IC50: Mycobacterium tuberculosis, 168 h, read-out: M. tuberculosis pIC50 (converted)
M. Smegmatis ATCC607 = experiment: In-vitro anti-bacterial activity against strain M. smegmatis ATCC607 (Alamar Blue growth inhibition); format: cell-based; details: 48 hours incubation; for IC50: Mycolicibacterium smegmatis, read-out: M. smegmatis pIC50 (converted)
Description: Serial five-fold dilutions (45 μl in 180 μl) were made directly in the microtiter plates from column 2 to 11 using a customised robot system (Zymark Corp., Hopkinton, Mass.). Pipette tips were changed after every 3 dilutions to minimize pipetting errors with high hydrophobic compounds. Untreated control samples with (column 1) and without (column 12) inoculum were included in each microtiter plate. Approximately 250 CFU per well of bacteria inoculum, in a volume of 100 μl in 2.8× Mueller-Hinton broth medium, was added to the rows […]. The same volume of broth medium without inoculum was added to column 12 in row A to H. The cultures were incubated at 37° C. for 48 hours in a humidified 5% CO2 atmosphere (incubator with open air valve and continuous ventilation). At the end of incubation, two days after inoculation, the bacterial growth was quantitated fluorometrically. Therefore Alamar Blue (10×) was added to all wells in a volume of 20 μl and plates were incubated for another 2 hours at […] The fluorescence was read in a computer-controlled fluorometer (Cytofluor, Biosearch) at an excitation wavelength of 530 nm and an emission wavelength of 590 nm (gain 30). The percentage growth inhibition achieved by the compounds was calculated according to standard methods and expressed as pIC50 values.

ECO 25922 = experiment: Microtitre plate assay, IC90 determination, ECO 25922; format: cell-based, E. coli; details: 90% inhibitory concentration for bacterial growth, strain ECO 25922, 24 hours at 37° C.; for IC90: Escherichia coli, read-out: IC90 (μg/ml) ECO 25922
Description: Stocks (0.5 ml/tube) were stored at -70° C. until use. Bacteria titrations were performed in microtiter plates to detect the TCID50, in which the TCID50 represents the dilution that gives rise to bacterial growth in 50% of inoculated cultures. In general, an inoculum level of approximately 100 TCID50 was used for susceptibility testing. […] Serial five-fold dilutions (45 μl in 180 μl) were made directly in the microtiter plates from column 2 to reach column 11. Untreated control samples with (column 1) and without (column 12) inoculum were included in each microtiter plate. Depending on the bacteria type, approximately 10 to 60 CFU per well of bacteria inoculum (100 TCID50), in a volume of 100 μl in 2.8× Mueller-Hinton broth medium, was added to the rows […]. The same volume of broth medium without inoculum was added to column 12 in row A to H. The cultures were incubated at 37° C. for 24 hours under a normal atmosphere (incubator with open air valve and continuous ventilation). At the end of incubation, one day after inoculation, the bacterial growth was quantitated fluorometrically. Therefore resazurin (0.6 mg/ml) was added in a volume of 20 μl to all wells 3 hours after inoculation, and the plates were re-incubated overnight. A change in colour from blue to pink indicated the growth of bacteria. The fluorescence was read in a computer-controlled fluorometer (Cytofluor Biosearch) at an excitation wavelength of 530 nm and an emission wavelength of 590 nm. The % growth inhibition achieved by the compounds was calculated according to standard methods. The IC90 (expressed in μg/ml) was defined as the 90% inhibitory concentration for bacterial growth.

Cc1ccc2nc(-c3ccccc3)c(C(c3ccccc3)N(CC(=O)N3CCCC3)Cc3ccccc3)cc2c1 (stereo not shown) [Compound 64]
M. tuberculosis pIC50 [1]: 5.0 | M. smegmatis pIC50 (M. Smegmatis ATCC607): 6.5

COc1nc2ccc(Br)cc2cc1C(c1ccccc1)N(CCC(=O)N1CCOCC1)Cc1ccccc1 (stereo not shown) [Compound 120]
IC90 (μg/ml) ECO 25922 (ECO 25922): 14.4 µg/mL (≈ 25.1 µM) | M. smegmatis pIC50 (M. Smegmatis ATCC607): 5.6

COc1nc2ccc(Br)cc2cc1C(c1ccccc1)N(CC(=O)N1CCOCC1)Cc1ccccc1 (stereo not shown) [Compound 105]
IC90 (μg/ml) ECO 25922 (ECO 25922): 14.1 µg/mL (≈ 25.2 µM) | M. smegmatis pIC50 (M. Smegmatis ATCC607): 6.0

COc1nc2ccc(C#N)cc2cc1C(c1ccccc1)N(CC(=O)N1CCOCC1)Cc1ccccc1 (stereo not shown) [Compound 124]
IC90 (μg/ml) ECO 25922 (ECO 25922): 12.7 µg/mL (≈ 25.1 µM) | M. smegmatis pIC50 (M. Smegmatis ATCC607): 5.05

Cc1ccc2nc(-c3ccccc3)c(C(c3ccccc3)N(CC(=O)N3CCSC3)Cc3ccccc3)cc2c1 (stereo not shown) [Compound 65]
M. tuberculosis pIC50 [1]: 5.0 | IC90 (μg/ml) ECO 25922 (ECO 25922): 13.7 µg/mL (≈ 25.2 µM) | M. smegmatis pIC50 (M. Smegmatis ATCC607): 6.5

Cc1ccc2nc(-c3ccccc3)c(C(c3ccccc3)N(CC(=O)N3CCN(Cc4ccccc4)CC3)Cc3ccccc3)cc2c1 (stereo not shown) [Compound 78]
M. tuberculosis pIC50 [1]: 6.05

CCOC(=O)CN(C(C)C)C(c1ccccc1)c1cc2cc(Br)ccc2nc1OC (stereo not shown) [Compound 133]
M. tuberculosis pIC50 [1]: 4.4 | M. smegmatis pIC50 (M. Smegmatis ATCC607): 5.7

Cc1ccc2nc(-c3ccccc3)c(C(c3ccccc3)N(CC(=O)N3CCC(C)CC3)Cc3ccccc3)cc2c1 (stereo not shown) [Compound 67]
M. tuberculosis pIC50 [1]: 5.7 | M. smegmatis pIC50 (M. Smegmatis ATCC607): 6.0

CCCN(CCC)C(=O)CN(Cc1ccccc1)C(c1ccccc1)c1cc2cc(C)ccc2nc1-c1ccccc1 (stereo not shown) [Compound 49]
M. tuberculosis pIC50 [1]: 4.6 | M. smegmatis pIC50 (M. Smegmatis ATCC607): 5.2

Cc1ccc2nc(-c3ccccc3)c(C(c3ccccc3)N(CC(=O)N3CC(C)OC(C)C3)Cc3ccccc3)cc2c1 (stereo not shown) [Compound 71]
M. tuberculosis pIC50 [1]: 5.1 | M. smegmatis pIC50 (M. Smegmatis ATCC607): 5.7

CCOC(=O)CN(Cc1ccccc1)C(c1ccccc1)c1cc2cc(Br)ccc2nc1-c1ccccc1 (stereo not shown) [Compound 146]
IC50 [1]: 50.1 µM | IC90 (ECO 25922): 14.2 µg/mL (≈ 25.1 µM) | IC50 (M. Smegmatis ATCC607): 501 nM

CCN(CC)C(=O)CN(Cc1ccccc1)C(c1ccccc1)c1cc2cc(C)ccc2nc1-c1ccccc1 (stereo not shown) [Compound 47]
IC50 [1]: 6.31 µM | IC50 (M. Smegmatis ATCC607): 316 nM

COc1nc2ccc(Br)cc2cc1C(c1ccccc1)N(CC(=O)N1CCOCC1)Cc1ccccc1Cl (stereo not shown) [Compound 108]
IC90 (μg/ml) ECO 25922 (ECO 25922): 14.9 µg/mL (≈ 25 µM) | M. smegmatis pIC50 (M. Smegmatis ATCC607): 5.9

Cc1ccc2nc(-c3ccccc3)c(C(c3ccccc3)N(CC(=O)N3CCc4ccccc4C3)Cc3ccccc3)cc2c1 (stereo not shown) [Compound 74]
M. tuberculosis pIC50 [1]: 5.0 | IC90 (μg/ml) ECO 25922 (ECO 25922): 14.8 µg/mL (≈ 25.2 µM) | M. smegmatis pIC50 (M. Smegmatis ATCC607): 5.2

CNC(=O)CN(Cc1ccccc1)C(c1ccccc1)c1cc2cc(Br)ccc2nc1-c1ccccc1 (stereo not shown) [Compound 52]
IC90 (μg/ml) ECO 25922 (ECO 25922): 13.8 µg/mL (≈ 25.1 µM) | M. smegmatis pIC50 (M. Smegmatis ATCC607): 5.8

Cc1ccc2nc(-c3ccccc3)c(C(c3ccccc3)N(CC(=O)N3Cc4ccccc4C3)Cc3ccccc3)cc2c1 (stereo not shown) [Compound 73]
M. tuberculosis pIC50 [1]: 4.5

Cc1ccc2nc(-c3ccccc3)c(C(c3ccccc3)N(C)CCN(C)C)cc2c1 (stereo not shown) (as salt: oxalate) [Compound 37]
melting point: 142 °C

CCOC(=O)CN(Cc1ccccc1)C(c1ccccc1)c1cc2cc(C)ccc2nc1-c1ccccc1 (stereo not shown) [Compound 150]
IC50 [1]: 39.8 µM | IC50 (M. Smegmatis ATCC607): 398 nM

COc1nc2ccc(Br)cc2cc1C(c1ccccc1)N(CC(=O)N1CCOCC1)Cc1ccoc1 (stereo not shown) [Compound 102]
IC90 (μg/ml) ECO 25922 (ECO 25922): 13.8 µg/mL (≈ 25.1 µM) | M. smegmatis pIC50 (M. Smegmatis ATCC607): 5.8

CCN(Cc1ccccc1)C(=O)CN(Cc1ccccc1)C(c1ccccc1)c1cc2cc(C)ccc2nc1-c1ccccc1 (stereo not shown) [Compound 48]
M. tuberculosis pIC50 [1]: 4.1

Cc1ccc2nc(-c3ccccc3)c(C(c3ccccc3)N(CC(=O)N3CCC(Cc4ccccc4)CC3)Cc3ccccc3)cc2c1 (stereo not shown) [Compound 79]
M. tuberculosis pIC50 [1]: 5.7

Cc1ccc2nc(-c3ccccc3)c(C(c3ccccc3)N(CC(=O)N(C)CC#N)Cc3ccccc3)cc2c1 (stereo not shown) [Compound 46]
M. tuberculosis pIC50 [1]: 5.0 | M. smegmatis pIC50 (M. Smegmatis ATCC607): 5.8

COc1nc2ccc(Br)cc2cc1C(c1ccccc1)N(CC(=O)N1CCCC1)Cc1ccccc1 (stereo not shown) [Compound 103]
IC90 (μg/ml) ECO 25922 (ECO 25922): 13.7 µg/mL (≈ 25.2 µM) | M. smegmatis pIC50 (M. Smegmatis ATCC607): 4.5

COc1nc2ccc(Br)cc2cc1C(c1ccccc1)N(C)CC(=O)N1CCSCC1 (stereo not shown) [Compound 88]
M. tuberculosis pIC50 [1]: 4.05 | M. smegmatis pIC50 (M. Smegmatis ATCC607): 4.9

CCOC(=O)CN(Cc1ccccc1)C(c1ccccc1)c1cc2cc(C#N)ccc2nc1OC (stereo not shown) [Compound 151]
melting point: 148 °C

COc1nc2ccc(Br)cc2cc1C(c1ccccc1)N(CC(=O)N1CCOCC1)Cc1cccnc1 (stereo not shown) [Compound 111]
IC90 (μg/ml) ECO 25922 (ECO 25922): 14.1 µg/mL (≈ 25.1 µM) | M. smegmatis pIC50 (M. Smegmatis ATCC607): 5.8

Cc1ccc2nc(-c3ccccc3)c(C(c3ccccc3)N(CC(=O)N3CCN(c4ncccn4)CC3)Cc3ccccc3)cc2c1 (stereo not shown) [Compound 76]
M. tuberculosis pIC50 [1]: 5.0

Cc1ccc2nc(-c3ccccc3)c(C(c3ccccc3)N(CC(=O)N3CCOCC3)Cc3ccccc3)cc2c1 (stereo not shown) [Compound 68]
M. tuberculosis pIC50 [1]: 5.1 | M. smegmatis pIC50 (M. Smegmatis ATCC607): 6.5

Cc1ccc2nc(-c3ccccc3)c(C(c3ccccc3)N(CC(=O)N(C)C)Cc3ccccc3)cc2c1 (stereo not shown) [Compound 45]
IC50 [1]: 10 µM | IC50 (M. Smegmatis ATCC607): 1000 nM

CCOC(=O)CN(Cc1ccccc1)C(c1ccccc1)c1cc2cc(-c3cccnc3)ccc2nc1-c1ccccc1 (stereo not shown) [Compound 152]
IC90 (ECO 25922): 14.2 µg/mL (≈ 25.2 µM) | IC50 (M. Smegmatis ATCC607): 2510 nM

COc1nc2ccc(Br)cc2c(Cl)c1C(c1ccccc1)N(C)CC(=O)N1CCSCC1 (stereo not shown) [Compound 97]
M. tuberculosis pIC50 [1]: 4.2 | M. smegmatis pIC50 (M. Smegmatis ATCC607): 4.4

CCOC(=O)CN(C)C(c1ccccc1)c1cc2cc(Br)ccc2nc1OC (stereo not shown) [Compound 131]
IC50 [1]: 31.6 µM | IC50 (M. Smegmatis ATCC607): 1000 nM

Cc1ccc2nc(-c3ccccc3)c(C(c3ccccc3)N(CC(=O)N3CCN(c4ccccn4)CC3)Cc3ccccc3)cc2c1 (stereo not shown) [Compound 75]
M. tuberculosis pIC50 [1]: 5.4

COc1nc2ccc(Br)cc2cc1C(c1ccccc1)N(CC(=O)N1CCSCC1)Cc1ccccc1 (stereo not shown) [Compound 106]
M. tuberculosis pIC50 [1]: <4 | IC90 (μg/ml) ECO 25922 (ECO 25922): 14.5 µg/mL (≈ 25.1 µM) | M. smegmatis pIC50 (M. Smegmatis ATCC607): 6.4

COc1nc2ccc(Br)cc2cc1C(c1ccccc1)N(CC(=O)N1CCSCC1)Cc1ccc2ccccc2n1 (stereo not shown) [Compound 113]
M. smegmatis pIC50 (M. Smegmatis ATCC607): 4.5

CCCCN(C)C(=O)CN(C)C(c1ccccc1)c1cc2cc(Br)ccc2nc1OC (stereo not shown) [Compound 6]
M. smegmatis pIC50 (M. Smegmatis ATCC607): 5.1

COc1nc2ccc(Br)cc2cc1C(c1ccccc1)N(C)CC(=O)N1CCN(c2ccccn2)CC1 (stereo not shown) [Compound 92]
M. smegmatis pIC50 (M. Smegmatis ATCC607): 5.1

COCCN(CCOC)C(=O)CN(Cc1ccccc1)C(c1ccccc1)c1cc2cc(C)ccc2nc1-c1ccccc1 (stereo not shown) [Compound 50]
M. smegmatis pIC50 (M. Smegmatis ATCC607): 5.8

COc1nc2ccc(Br)cc2cc1C(c1ccccc1)N(CCCN(C)C)CCCN(C)C (stereo not shown) [Compound 28]
M. smegmatis pIC50 (M. Smegmatis ATCC607): 5.1

COc1nc2ccc(Br)cc2cc1C(c1ccccc1)[N+]([O-])(CC(=O)N1CCOCC1)Cc1ccccc1 (stereo not shown) [Compound 154]
IC50 (M. Smegmatis ATCC607): 3980 nM

COc1cccc(CN(CCN(C)C)C(c2ccccc2)c2cc3cc(Br)ccc3nc2OC)c1 (stereo not shown) (as salt: oxalate) [Compound 20]
melting point: 142 °C

COc1nc2ccc(Br)cc2cc1C(c1ccccc1)N(C)CC(=O)N(C)C(C)C (stereo not shown) [Compound 5]
M. smegmatis pIC50 (M. Smegmatis ATCC607): 5.1

O=C(CN(Cc1ccccc1)C(c1cc2ccccc2o1)c1cc2ccccc2nc1-c1ccccc1)N1CCCC1 (stereo not shown) [Compound 57]
M. smegmatis pIC50 (M. Smegmatis ATCC607): 5.9

COc1nc2ccc(Br)cc2cc1C(c1ccccc1)N(C)CC(=O)N1CCCCC1 (stereo not shown) [Compound 82]
M. smegmatis pIC50 (M. Smegmatis ATCC607): 4.4

CCN(CC)CCN(C)C(c1ccccc1)c1cc2cc(Br)ccc2nc1OC (stereo not shown) [Compound 2]
IC50 (M. Smegmatis ATCC607): 2000 nM

Cc1ccc2nc(-c3ccccc3)c(C(c3ccccc3)N(C)CC(=O)N(C)C)cc2c1 (stereo not shown) [Compound 39]
M. smegmatis pIC50 (M. Smegmatis ATCC607): 4.5

O=C(CN(Cc1ccccc1)C(c1ccccc1)c1cc2ccccc2nc1-c1ccccc1)N1CCCC1 (stereo not shown) [Compound 55]
M. tuberculosis pIC50 [1]: 4.3 | IC90 (μg/ml) ECO 25922 (ECO 25922): 12.9 µg/mL (≈ 25.2 µM) | M. smegmatis pIC50 (M. Smegmatis ATCC607): 6.0
